{"source": "PubChem BioAssay AID1320", "about": "(NMMLSC, 2008)", "biological_target": "Bcl-2-related protein A1 (Homo sapiens) (UniProt Q16548)", "sequence (Q16548 whole entry, looked up)": "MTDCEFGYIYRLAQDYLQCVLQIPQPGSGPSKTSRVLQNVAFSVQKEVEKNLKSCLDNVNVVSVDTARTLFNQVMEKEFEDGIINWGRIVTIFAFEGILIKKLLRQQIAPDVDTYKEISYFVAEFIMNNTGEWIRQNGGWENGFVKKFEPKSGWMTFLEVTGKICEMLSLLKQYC", "test": "Bfl-1/Bim complex disruptors – biochemical, multiplexed, bead-based flow cytometry, dose response (AID 1320); note: test concentration not given here", "conditions": "Bim peptide-Bfl-1 binding, fluorescence", "note": "Calls of active or inactive are those of the source. The rule behind the calls is not given here.", "data": [{"smiles": "O=C(O)CC/C(=C\\c1cc([N+](=O)[O-])ccc1Cl)c1nc2ccccc2s1", "values": [{"measurement": "percent span (inhibition)", "value": "inactive"}]}, {"smiles": "O=C1c2ccccc2C(=O)N1c1cccc2cccnc12", "values": [{"measurement": "percent span (inhibition)", "value": "inactive"}]}, {"smiles": "Cc1[nH]c2ccccc2c1C(=O)COC(=O)c1c(-c2c(F)cccc2Cl)noc1C", "values": [{"measurement": "percent span (inhibition)", "value": "inactive"}]}, {"smiles": "CCOc1ccc(C2=Nn3c(nnc3-c3ccccn3)SC2)cc1", "values": [{"measurement": "percent span (inhibition)", "value": "inactive"}]}, {"smiles": "Cc1ccc2c(c1)C1CN(C)CCC1N2C(=O)Nc1cccc(Cl)c1", "note": "(stereo not drawn)", "values": [{"measurement": "percent span (inhibition)", "value": "inactive"}]}, {"smiles": "CC(C)c1ccc(/C=N/NC(=O)c2ccccc2Cl)cc1", "values": [{"measurement": "percent span (inhibition)", "value": "inactive"}]}, {"smiles": "CCCCCCc1cc2cc(C(=O)Nc3ccccc3)c(=O)oc2cc1O", "values": [{"measurement": "percent span (inhibition)", "value": "inactive"}]}, {"smiles": "Cc1ccc(-n2nc(C)c(C(=O)O)n2)c(C)c1", "values": [{"measurement": "percent span (inhibition)", "value": "inactive"}]}, {"smiles": "CCN(CC)CCN(C(=O)c1ccc(N2C(=O)CCC2=O)cc1)c1nc2cc3c(cc2s1)OCCO3", "values": [{"measurement": "percent span (inhibition)", "value": "inactive"}]}, {"smiles": "CCNCc1cc(Br)c(OCC(=O)Nc2ccccc2)c(OC)c1", "values": [{"measurement": "percent span (inhibition)", "value": "inactive"}]}, {"smiles": "CC1=CC(=O)c2ccccc2C1=O", "values": [{"measurement": "percent span (inhibition)", "value": "inactive"}]}, {"smiles": "CN(C)c1ccc(/C=C2/SC(=O)N(CCN=C3NS(=O)(=O)c4ccccc43)C2=O)cc1", "values": [{"measurement": "percent span (inhibition)", "value": "inactive"}]}, {"smiles": "Cc1nn(-c2ccc(Cl)cc2)c(Cl)c1/C=C(\\C#N)C(N)=O", "values": [{"measurement": "percent span (inhibition)", "value": "inactive"}]}, {"smiles": "C#CCOCCOCCOCCNc1nc(N2CCN(C(=O)[C@H]([C@@H](C)CC)n3cc([C@@H](N)CC(C)C)nn3)CC2)nc(N2CCN(C(=O)[C@H](Cc3cc4ccccc4[nH]3)n3cc([C@@H](N)Cc4ccc(O)cc4)nn3)CC2)n1", "values": [{"measurement": "percent span (inhibition)", "value": "inactive"}]}, {"smiles": "COc1ccccc1Cn1nnc2c(=O)[nH]c(C3CCN(C(=O)c4ccc(C)cc4)CC3)nc21", "values": [{"measurement": "percent span (inhibition)", "value": "inactive"}]}, {"smiles": "Cc1cccc(-n2c(-c3ccncc3)n[nH]c2=S)c1", "values": [{"measurement": "percent span (inhibition)", "value": "inactive"}]}, {"smiles": "CSc1ccccc1NC(=O)CN(C)CC(=O)Nc1ccc(N2CCOCC2)cc1", "values": [{"measurement": "percent span (inhibition)", "value": "inactive"}]}, {"smiles": "O=C(Nc1cccc(Cl)c1)Nc1ccc(Cl)cn1", "values": [{"measurement": "percent span (inhibition)", "value": "inactive"}]}, {"smiles": "CN(Cc1ccccc1)C(=O)c1[nH]cnc1C(=O)N[C@@H](CCCCNC(=O)OC(C)(C)C)C(=O)OC(C)(C)C", "values": [{"measurement": "percent span (inhibition)", "value": "inactive"}]}, {"smiles": "Cc1ccccc1-n1c(SCc2cccc(F)c2)nc2[nH]ncc2c1=O", "values": [{"measurement": "percent span (inhibition)", "value": "inactive"}]}, {"smiles": "COc1ccc(C2=Nn3c(nnc3-c3ccccn3)SC2)cc1OC", "values": [{"measurement": "percent span (inhibition)", "value": "inactive"}]}, {"smiles": "O=C(CSc1nc2ccsc2c(=O)n1Cc1ccc(C(=O)O)cc1)NCC1CCCO1", "note": "(stereo not drawn)", "values": [{"measurement": "percent span (inhibition)", "value": "inactive"}]}, {"smiles": "Clc1ccc(N=c2ssnc2Cl)nc1", "values": [{"measurement": "percent span (inhibition)", "value": "inactive"}]}, {"smiles": "O=C(Nc1n[nH]c(C(F)(F)F)n1)C1CC1", "values": [{"measurement": "percent span (inhibition)", "value": "inactive"}]}, {"smiles": "CCOC(=O)c1c2c3c(cccc3[nH]c1=O)C(=O)c1ccccc1-2", "values": [{"measurement": "percent span (inhibition)", "value": "inactive"}]}, {"smiles": "COc1ccc(NC(=O)/C(C#N)=C/c2c(C)nn(-c3ccc(F)cc3)c2Cl)cc1Cl", "values": [{"measurement": "percent span (inhibition)", "value": "inactive"}]}, {"smiles": "CCOc1ccccc1C(=O)NC1CC2CCCC(C1)N2C1CC1", "note": "(stereo not drawn)", "values": [{"measurement": "percent span (inhibition)", "value": "inactive"}]}, {"smiles": "CCSc1ncc(Cl)c(C(=O)Nc2sc3c(c2C(=O)NCc2cccnc2)CCCC3)n1", "values": [{"measurement": "percent span (inhibition)", "value": "inactive"}]}, {"smiles": "Cc1ccc(N=Cc2c(O)n(-c3ccc4c(c3)OCO4)c(=O)c3ccccc23)cc1", "values": [{"measurement": "percent span (inhibition)", "value": "inactive"}]}, {"smiles": "COc1cc(/C=N/NC(=O)CN(Cc2ccco2)S(=O)(=O)c2ccccc2)ccc1O", "values": [{"measurement": "percent span (inhibition)", "value": "inactive"}]}, {"smiles": "COc1ccc(CC(=O)Nc2ccc(C(=O)Nc3nccs3)cc2)cc1OC", "values": [{"measurement": "percent span (inhibition)", "value": "inactive"}]}, {"smiles": "Cc1ccc(/C=N/NC(=O)CSc2nnc(-c3ccc(Cl)cc3)n2-c2ccccc2)o1", "values": [{"measurement": "percent span (inhibition)", "value": "inactive"}]}, {"smiles": "O=c1[nH]c(SCc2nc3ccccc3c(=O)n2-c2ccccc2C(F)(F)F)nc2ccccc12", "values": [{"measurement": "percent span (inhibition)", "value": "inactive"}]}, {"smiles": "COc1c(C)cc(Br)cc1C(=O)Nc1ccc(S(N)(=O)=O)cc1", "values": [{"measurement": "percent span (inhibition)", "value": "inactive"}]}, {"smiles": "O=C(CNC(=O)c1ccco1)NCC(=O)OCc1ccccc1Br", "values": [{"measurement": "percent span (inhibition)", "value": "inactive"}]}, {"smiles": "O=C(Nc1cccc(-c2ccc3nncn3n2)c1)c1ccco1", "values": [{"measurement": "percent span (inhibition)", "value": "inactive"}]}, {"smiles": "COc1ccc(OC)c(Nc2ccc(C(=O)O)cc2[N+](=O)[O-])c1", "values": [{"measurement": "percent span (inhibition)", "value": "inactive"}]}, {"smiles": "O=C(N/N=C/c1ccncc1)c1cccc(NC(=O)c2ccccc2Cl)c1", "values": [{"measurement": "percent span (inhibition)", "value": "inactive"}]}, {"smiles": "Cc1ccc(/C=N/N(C)C2=NS(=O)(=O)c3ccccc32)o1", "values": [{"measurement": "percent span (inhibition)", "value": "inactive"}]}, {"smiles": "O=C(Cc1ccc(-c2ccccc2)cc1)NC1CCCC1", "values": [{"measurement": "percent span (inhibition)", "value": "inactive"}]}, {"smiles": "O=C(c1cc(=O)c2ccccc2o1)N1CCN(c2ccccc2F)CC1", "values": [{"measurement": "percent span (inhibition)", "value": "inactive"}]}, {"smiles": "O=C(O)C1=C[C@H](C2CC2)C[C@H](OCCCCO)O1", "values": [{"measurement": "percent span (inhibition)", "value": "inactive"}]}, {"smiles": "COc1c(F)c(F)c(C(=O)Nc2ccccc2N2CCN(C(=O)C(C)C)CC2)c(F)c1F", "values": [{"measurement": "percent span (inhibition)", "value": "inactive"}]}, {"smiles": "CN(C)[C@@H]1C(=O)C(C(=O)NCN2CCCC2)=C(O)[C@@]2(O)C(=O)C3=C(O)c4c(O)cccc4[C@@](C)(O)C3CC12", "note": "(stereo partly drawn)", "values": [{"measurement": "percent span (inhibition)", "value": "inactive"}]}, {"smiles": "O=C1NCCN1C(=O)N(c1ccccc1)c1ccccc1", "values": [{"measurement": "percent span (inhibition)", "value": "inactive"}]}, {"smiles": "Cc1ccc(-c2n[nH]c(=S)n2-c2ccccc2)cc1", "values": [{"measurement": "percent span (inhibition)", "value": "inactive"}]}, {"smiles": "COc1cc2nc(=S)n(CCCN3CCOCC3)c(N)c2cc1OC", "values": [{"measurement": "percent span (inhibition)", "value": "inactive"}]}, {"smiles": "O=C(COCC(=O)NCc1ccccc1)NCc1ccccc1", "values": [{"measurement": "percent span (inhibition)", "value": "inactive"}]}, {"smiles": "COc1ccc(NC(=O)c2ccc(CN3CCN(c4ccccc4)CC3)cc2)cc1", "values": [{"measurement": "percent span (inhibition)", "value": "inactive"}]}, {"smiles": "CC1Cc2ccccc2N1C(=O)CSc1nnnn1-c1ccc2c(c1)OCCO2", "note": "(stereo not drawn)", "values": [{"measurement": "percent span (inhibition)", "value": "inactive"}]}, {"smiles": "Cc1ccc(NC(=O)CSc2nc3ccccc3c(=O)n2CCCN2CCCCC2)cc1Cl", "values": [{"measurement": "percent span (inhibition)", "value": "inactive"}]}, {"smiles": "COc1cccc(/C=C2/SC(=O)N(C)C2=O)c1OCc1ccc(C(=O)O)cc1", "values": [{"measurement": "percent span (inhibition)", "value": "inactive"}]}, {"smiles": "O=C1C(Cl)=C(Nc2ccccc2O)C(=O)N1c1ccccc1", "values": [{"measurement": "percent span (inhibition)", "value": "inactive"}]}, {"smiles": "CC(=O)c1ccc2c(c1)C1C=CCC1C(c1ccncc1)N2", "note": "(stereo not drawn)", "values": [{"measurement": "percent span (inhibition)", "value": "inactive"}]}, {"smiles": "COC(=O)c1sc2nc[nH]c(=O)c2c1C", "values": [{"measurement": "percent span (inhibition)", "value": "inactive"}]}, {"smiles": "S=C(Nc1ccc(N2CCOCC2)cc1)Nc1ccc2nc(-c3ccco3)c(-c3ccco3)nc2c1", "values": [{"measurement": "percent span (inhibition)", "value": "inactive"}]}, {"smiles": "COc1ccc2nc(NC(=O)c3ccc(-c4cccc([N+](=O)[O-])c4)o3)sc2c1", "values": [{"measurement": "percent span (inhibition)", "value": "inactive"}]}, {"smiles": "Cc1ccc(CNc2ccc3c(c2)OCO3)c(C)c1", "values": [{"measurement": "percent span (inhibition)", "value": "inactive"}]}, {"smiles": "COc1ccc(NC(=O)c2c(F)cccc2F)cc1S(=O)(=O)Nc1ccc(Br)cc1", "values": [{"measurement": "percent span (inhibition)", "value": "inactive"}]}, {"smiles": "CCOC(=O)c1cc2c(=O)n3cccc(C)c3nc2n(Cc2ccco2)c1=NC(=O)c1ccccc1", "values": [{"measurement": "percent span (inhibition)", "value": "inactive"}]}, {"smiles": "COCCNc1nc(=S)[nH]c2cc(OC)c(OC)cc12", "values": [{"measurement": "percent span (inhibition)", "value": "inactive"}]}, {"smiles": "CNc1nc2ccccc2n1/N=C/c1cccc(OC)c1OC", "values": [{"measurement": "percent span (inhibition)", "value": "inactive"}]}, {"smiles": "BrC(=C\\c1ccccc1)/C=N/N1CCN(c2ccccc2)CC1", "values": [{"measurement": "percent span (inhibition)", "value": "inactive"}]}, {"smiles": "CCOc1ccc(C(=O)Nc2nnc(NC(=S)Nc3ccccc3)s2)cc1", "values": [{"measurement": "percent span (inhibition)", "value": "inactive"}]}, {"smiles": "O=C(NCCCN1CCCC1=O)NC1CCCCC1", "values": [{"measurement": "percent span (inhibition)", "value": "inactive"}]}, {"smiles": "CCOC(=O)C1CCCN(c2ncnc3c2cnn3-c2cccc(C)c2)C1", "note": "(stereo not drawn)", "values": [{"measurement": "percent span (inhibition)", "value": "inactive"}]}, {"smiles": "OCCC1CN(Cc2ccc3ncccc3c2)CCN1Cc1ccccc1", "note": "(stereo not drawn)", "values": [{"measurement": "percent span (inhibition)", "value": "inactive"}]}, {"smiles": "Cc1ccc(OCc2cn3cccnc3n2)cc1", "values": [{"measurement": "percent span (inhibition)", "value": "inactive"}]}]}
